Assay results published in US20090042849A1, “Phosphorylation of 5-lipoxygenase at ser523 and uses thereof” (priority 2006, published 2009).

Assays:
5LO = test: immunoblotting of 5LO in cytosolic, membranous and nuclear fractions of myocardial cells; format: in vivo; conditions: rat myocardium
Description: Rats received: 1) […] (20 mg/kg) or 6) water alone (control). PIO and ATV were suspended in water and administered by gastric gavage once daily for 3 days; H-89 was dissolved in DMSO (final concentration 5% v/v) and injected intraperitoneally on the third day. Rats in groups 5 and 6 received water by gastric gavage once daily for 3 days. Rats in groups 1, 2 and 6 received intraperitoneal inkection of DMSO 5%. Sixteen hours after the injection, rats were euthanized and the hearts explanted for further analyses. In another experiment, rats received 3-day pretreatment with: 1) […]); or 5) LPS (10 mg/kg). Myocardial samples (0.25 g) were homogenized, mixed with Buffer A Mix [Hepes (pH 7.9) 10 mM, KCl 10 mM, EDTA 10 mM, DTT 100 mM, protease inhibitor cocktail, and IGEPAL 10%, (Sigma, St Lois, Mo.)], homogenized again and incubated for 15 min on ice, and centrifuged at 850×g for 10 min at 4° C. The supernatant was discharged, Buffer A Mix was added again and the samples incubated for an additional 15 min on ice, and centrifuged at 15,000×g for 3 min at 40 C. The supernatant contains the cytosolic fraction was collected. The pellet was resuspended in 150 μl of Buffer B Mix [Hepes (pH 7.9) 20 mM, NaCl 0.4M, EDTA 1 mM, glycerol 10%, protease inhibitor cocktail, and IGEPAL 10%], the tubes were shaked on ice at 200 rpm for 2 h, centrifuged at 15,000×g for 5 min at 4° C., and supernatants were collected as the nuclear fraction. […] The hearts were rapidly explanted, rinsed in cold PBS (pH 7.4), containing 0.16 mg/ml heparin to remove red blood cells and clots, frozen in liquid nitrogen and stored at -70° C. Myocardial samples from the anterior left ventricular wall were homogenized in RIPA lysis buffer (Santa Cruz Biotechnology, Santa Cruz, Calif.) and centrifuged at 14,000 rpm for 15 min at 4° C. The supernatant was collected and the total protein concentration was determined using the Lowry protein assay. […] The protein samples with loading buffer were run in 4-20% Tri-HCl Ready Gel at a 100V for 2 h until the desired molecular weight bands were separated. After electrophoresis, the gel was equilibrated in transfer buffer (25 mM Tris, 193 mM glycine, 0.1% SDS and 10% methanol) and the proteins were transferred to nitrocellulose membrane. The protein signals were quantified by an image-scanning-densitometer and the strength of each protein signal was normalized to the corresponding b-actin stain signal. Data are expressed as a ratio between the protein and the corresponding b-actin signal density.

5LO (P-5LO) = test: immunoblotting of 5LO and P-5LO in adult rat cardiac myocyte cultures; format: cell-based; conditions: H-89 0.1 μM with PIO+ATV
Description: Cardiac myocytes were isolated from adult Sprague-Dawley rats (250-300 g, male). Animals were heparinized (1,000-2,000 units i.p.) 5 min before being anesthetized with ketamine (100 mg/kg) and xylazine (10 mg/kg), and the hearts were removed and placed in ice-cold heart media solution (in mmol/l: 112 NaCl, 5.4 KCl, 1 MgCl2, 9 NaH2PO4, and 11.1 D-glucose; supplemented with 10 HEPES, 30 taurine, 2 DL-carnitine, and 2 creatine, pH. 7.4). The hearts were perfused retrogradely in a Langendorff apparatus with Ca^2+-free heart media for 5 min at 5 ml/min at 37° C., followed by perfusion with Ca^2+-free heart media containing collagenase II, 210 U/mg (Worthington, Lakewood, N.J.) for 20 min. […]
The hearts were rapidly explanted, rinsed in cold PBS (pH 7.4), containing 0.16 mg/ml heparin to remove red blood cells and clots, frozen in liquid nitrogen and stored at −70° C. […] The supernatant was collected and the total protein concentration was determined using the Lowry protein assay. […] The protein samples with loading buffer were run in 4-20% Tri-HCl Ready Gel at a 100V for 2 h until the desired molecular weight bands were separated. […] The protein signals were quantified by an image-scanning-densitometer and the strength of each protein signal was normalized to the corresponding b-actin stain signal. Data are expressed as a ratio between the protein and the corresponding b-actin signal density.

rat infarct model = test: rat infarct model, infarct size; format: in vivo; conditions: ATV 2 mg/kg/d, cilostazol 20 mg/kg/d, alone or combined
Description: The effects of cilostazol (Pletal) and atorvastatin on myocardial protection was measured in a rat infarct model. Pletal is a phosphodiesterase III inhibitor, thus increasing intracellular cAMP levels. cAMP activates PKA. ATV at 2 mg/kg/d had no effect. Cilostazol 20 mg/kg/d reduced infarct size. However, when combined with ATV 2 mg/kg/d the effect was much greater. There are 8 rats in the control and ATV 2 mg/kg/d groups and 6 rats in the cilostazol and the combination groups. Infarct size in the ATV 2 mg/kg/d (30.48±1.46%) is not different from the controls (33.97±2.76%).

Structure (SMILES) | 5LO levels in the cytosolic fraction (5LO) | 5LO levels in the membranous fraction (5LO) | effect on the 5LO phosphorylation by PIO+ATV (5LO (P-5LO)) | Infarct size (rat infarct model) [%] | effect on infarct size (in words) (rat infarct model)
O=S(=O)(NCCNC/C=C/c1ccc(Br)cc1)c1cccc2cnccc12 [H-89] | no significant effect | no significant effect | almost completely blocked | – | –
CC(C)c1c(C(=O)Nc2ccccc2)c(-c2ccccc2)c(-c2ccc(F)cc2)n1CCC(O)CC(O)CC(=O)O (stereo not shown) [ATV, 7-[2-(4-fluorophenyl)-5-(1-methylethyl)-3-phenyl-4-(phenylcarbamoyl)-1H-pyrrol-1-yl]-3,5-dihydroxy-heptanoic acid] | small, yet significant increase | no detectable effect | – | 30.48±1.46 | no effect
